Experiments:
[1] = target: Coagulation factor X (Homo sapiens) (UniProt P00742); assay: In vitro inhibition of human coagulation factor X.
[2] = target: Vitamin K-dependent protein C (Homo sapiens) (UniProt P04070); assay: Inhibitory activity against Activated protein C at pH 8.2
[3] = target: Coagulation factor X (Homo sapiens) (UniProt P00742); assay: Inhibitory activity against serine protease Coagulation factor X at pH 7.4
[4] = target: Coagulation factor X (Homo sapiens) (UniProt P00742); assay: Inhibitory activity against serine protease Coagulation factor X at pH 8.2
[5] = target: Tissue-type plasminogen activator (Homo sapiens) (UniProt P00750); assay: Inhibitory activity against tissue plasminogen activator (tissue plasminogen activator) at pH 8.2
[6] = target: Serine protease 1 (Homo sapiens) (UniProt P07477); assay: Inhibitory activity against trypsin at pH 8.2
[7] = target: Prothrombin (Homo sapiens) (UniProt P00734); assay: Inhibitory activity against thrombin at pH 8.2
[8] = target: Urokinase-type plasminogen activator (Homo sapiens) (UniProt P00749); assay: Inhibitory activity against urokinase-type plasminogen activator (microPa) at pH 8.2
[9] = target: T1, Coagulation factor VII (Homo sapiens) (UniProt P08709); assay: Inhibitory activity against Coagulation factor VII at pH 8.2
T1 sequence (whole entry): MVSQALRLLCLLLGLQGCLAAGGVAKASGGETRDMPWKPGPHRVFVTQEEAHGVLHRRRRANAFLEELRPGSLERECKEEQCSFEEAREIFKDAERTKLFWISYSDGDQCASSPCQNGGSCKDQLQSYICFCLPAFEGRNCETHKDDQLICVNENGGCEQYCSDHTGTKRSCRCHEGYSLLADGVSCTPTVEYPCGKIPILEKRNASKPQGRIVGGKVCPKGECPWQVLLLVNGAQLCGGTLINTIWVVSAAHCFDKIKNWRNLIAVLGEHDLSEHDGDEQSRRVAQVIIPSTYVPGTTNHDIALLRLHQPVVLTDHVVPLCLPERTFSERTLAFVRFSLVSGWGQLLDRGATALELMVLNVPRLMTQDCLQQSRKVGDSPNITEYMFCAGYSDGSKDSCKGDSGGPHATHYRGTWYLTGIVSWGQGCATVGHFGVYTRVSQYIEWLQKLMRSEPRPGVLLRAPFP

[10] = target: Plasminogen (Homo sapiens) (UniProt P00747); assay: Inhibitory activity against plasmin at pH 8.2
Plasminogen (Homo sapiens), sequence (P00747 whole entry, looked up): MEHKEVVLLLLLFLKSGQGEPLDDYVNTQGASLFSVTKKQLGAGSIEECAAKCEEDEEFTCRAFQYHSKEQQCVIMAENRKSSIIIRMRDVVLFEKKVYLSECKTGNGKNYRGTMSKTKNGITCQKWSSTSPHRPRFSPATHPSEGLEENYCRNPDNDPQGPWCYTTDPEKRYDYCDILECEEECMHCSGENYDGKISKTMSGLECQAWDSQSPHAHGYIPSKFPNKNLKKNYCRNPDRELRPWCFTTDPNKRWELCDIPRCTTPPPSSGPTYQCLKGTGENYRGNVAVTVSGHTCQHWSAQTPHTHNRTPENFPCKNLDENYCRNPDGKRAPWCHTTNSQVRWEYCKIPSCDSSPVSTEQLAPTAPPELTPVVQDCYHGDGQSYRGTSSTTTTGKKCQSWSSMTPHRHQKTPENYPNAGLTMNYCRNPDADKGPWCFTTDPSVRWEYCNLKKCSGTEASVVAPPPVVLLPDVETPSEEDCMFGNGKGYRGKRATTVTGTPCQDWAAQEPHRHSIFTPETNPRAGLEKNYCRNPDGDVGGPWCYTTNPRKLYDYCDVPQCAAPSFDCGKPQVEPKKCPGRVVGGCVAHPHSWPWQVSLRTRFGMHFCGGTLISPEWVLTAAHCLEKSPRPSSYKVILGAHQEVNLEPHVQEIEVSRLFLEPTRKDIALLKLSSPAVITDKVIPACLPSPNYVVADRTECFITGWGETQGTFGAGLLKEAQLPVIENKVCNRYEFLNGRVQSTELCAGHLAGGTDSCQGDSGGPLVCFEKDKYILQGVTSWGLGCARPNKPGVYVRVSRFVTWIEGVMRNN

Coagulation factor X (Homo sapiens), sequence (P00742 41-179 limits assumed): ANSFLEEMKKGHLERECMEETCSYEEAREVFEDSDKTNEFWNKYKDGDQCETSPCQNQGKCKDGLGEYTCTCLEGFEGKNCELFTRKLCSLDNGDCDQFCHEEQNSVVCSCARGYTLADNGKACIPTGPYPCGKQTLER
Coagulation factor X (Homo sapiens), sequence (P00742 235-488 limits assumed): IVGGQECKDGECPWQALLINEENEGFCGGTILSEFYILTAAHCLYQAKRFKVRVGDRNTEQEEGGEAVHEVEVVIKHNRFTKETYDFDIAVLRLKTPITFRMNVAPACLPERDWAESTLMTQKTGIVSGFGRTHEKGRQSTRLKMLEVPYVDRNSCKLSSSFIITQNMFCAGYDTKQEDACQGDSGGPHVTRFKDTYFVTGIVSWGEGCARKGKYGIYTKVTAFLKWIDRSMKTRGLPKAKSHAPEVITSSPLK
Vitamin K-dependent protein C (Homo sapiens), sequence (P04070 43-197 limits assumed): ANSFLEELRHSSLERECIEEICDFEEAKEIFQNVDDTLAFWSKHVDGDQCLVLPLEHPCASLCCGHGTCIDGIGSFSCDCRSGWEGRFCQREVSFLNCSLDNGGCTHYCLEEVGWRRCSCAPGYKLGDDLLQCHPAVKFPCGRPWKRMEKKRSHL
Vitamin K-dependent protein C (Homo sapiens), sequence (P04070 212-461 limits assumed): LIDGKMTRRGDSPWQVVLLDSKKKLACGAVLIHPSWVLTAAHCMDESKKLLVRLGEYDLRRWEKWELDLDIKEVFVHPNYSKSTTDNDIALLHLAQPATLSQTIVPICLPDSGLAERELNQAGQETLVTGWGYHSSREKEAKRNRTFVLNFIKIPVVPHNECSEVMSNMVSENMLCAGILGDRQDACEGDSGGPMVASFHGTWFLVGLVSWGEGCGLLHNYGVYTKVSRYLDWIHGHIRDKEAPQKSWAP
Tissue-type plasminogen activator (Homo sapiens), sequence (P00750 36-562 limits assumed): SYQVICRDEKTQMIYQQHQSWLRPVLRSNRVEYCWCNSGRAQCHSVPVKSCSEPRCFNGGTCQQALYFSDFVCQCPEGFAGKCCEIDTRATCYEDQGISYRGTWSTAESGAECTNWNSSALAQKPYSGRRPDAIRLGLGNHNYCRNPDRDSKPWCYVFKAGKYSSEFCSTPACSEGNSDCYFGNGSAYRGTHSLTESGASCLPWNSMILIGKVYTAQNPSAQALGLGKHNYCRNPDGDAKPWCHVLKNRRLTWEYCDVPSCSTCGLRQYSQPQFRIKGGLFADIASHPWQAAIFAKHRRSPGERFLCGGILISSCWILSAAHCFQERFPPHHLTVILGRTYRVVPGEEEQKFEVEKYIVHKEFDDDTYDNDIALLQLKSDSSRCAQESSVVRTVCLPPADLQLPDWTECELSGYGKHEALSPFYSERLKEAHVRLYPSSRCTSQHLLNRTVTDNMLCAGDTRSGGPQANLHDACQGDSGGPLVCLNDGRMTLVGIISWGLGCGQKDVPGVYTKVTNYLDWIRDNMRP
Serine protease 1 (Homo sapiens), sequence (P07477 whole entry): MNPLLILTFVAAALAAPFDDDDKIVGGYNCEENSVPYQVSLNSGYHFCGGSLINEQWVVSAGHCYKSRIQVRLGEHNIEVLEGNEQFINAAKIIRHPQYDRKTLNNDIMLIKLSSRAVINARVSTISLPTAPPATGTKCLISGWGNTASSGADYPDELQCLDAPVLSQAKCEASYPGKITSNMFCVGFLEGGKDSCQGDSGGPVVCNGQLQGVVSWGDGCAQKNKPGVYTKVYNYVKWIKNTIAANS

Row | Ki' [1] | Compound | also measured
1 | 17.7 µM | Cc1ccc(NC(=O)c2sc3ccccc3c2Cl)c(C(=O)Nc2ccc3c(c2)OCO3)c1 | 
2 | 10 µM | Cc1ccc(NC(=O)c2cc3ccc(O)cc3s2)c(C(=O)Nc2ccc(F)cc2)c1 | 
3 | 22.1 µM | Cc1ccc(NC(=O)c2sc3ccccc3c2Cl)c(C(=O)Nc2ccncc2)c1 | 
4 | > 150 µM | O=C(O)c1cccc(NC(=O)c2ccccc2NC(=O)c2sc3ccccc3c2Cl)c1 | 
5 | 0.21 µM | Cc1ccc(NC(=O)c2sc3ccccc3c2Cl)c(C(=O)Nc2ccc(Cl)cc2)c1 | 
6 | > 1200 µM | Cc1ccc(NC(=O)c2sc3ccccc3c2Cl)c(C(=O)Nc2ccc(N(C)C)cc2)c1 | 
7 | > 1200 µM | Cc1ccc(NC(=O)c2sc3ccccc3c2Cl)c(C(=O)Nc2ccccc2Cl)c1 | 
8 | > 1200 µM | Cc1ccc(NC(=O)c2sc3ccccc3c2Cl)c(C(=O)N2CCNCC2)c1 | 
9 | 97 µM | Cc1ccc(NC(=O)c2sc3ccccc3c2Cl)c(C(=O)Nc2ccc(O)cc2)c1 | 
10 | 436 µM | Cc1ccc(NC(=O)c2sc3ccccc3c2Cl)c(C(=O)Nc2ccc(N3CCOCC3)cc2)c1 | 
11 | 7.8 µM | O=C(Nc1ccccn1)c1ccccc1NC(=O)c1sc2ccccc2c1Cl | 
12 | > 150 µM | O=C(Nc1ccccc1C(=O)N1CCOCC1)c1sc2ccccc2c1Cl | 
13 | 2.1 µM | COc1ccc(NC(=O)c2cc(C)ccc2NC(=O)c2sc3ccccc3c2Cl)cc1 | 
14 | 3.5 µM | Cc1ccc(NC(=O)c2cc3cc(O)ccc3s2)c(C(=O)Nc2ccc(F)cc2)c1 | 
15 | 3.1 µM | O=C(Nc1ccc(F)cc1)c1ccccc1NC(=O)c1sc2ccccc2c1Cl | 
16 | 0.57 µM | Cc1ccc(NC(=O)c2sc3ccccc3c2Cl)c(C(=O)Nc2ccc(F)cc2)c1 | Ki' [2]: > 150 µM; Ki' [3]: 0.042 µM; Ki' [4]: 2.1 µM; Ki' [5]: > 150 µM; Ki' [6]: > 150 µM; Ki' [7]: 125 µM; Ki' [8]: > 150 µM; Ki' [9]: > 900 µM; Ki' [10]: > 150 µM
17 | > 150 µM | O=C(O)c1ccc(NC(=O)c2ccccc2NC(=O)c2sc3ccccc3c2Cl)cc1 | 

— ChEMBL document CHEMBL1134133, “Neutral inhibitors of the serine protease factor Xa” (Bioorg Med Chem Lett, 2001)
